Measured values taken from ChEMBL document CHEMBL1143153, “BACE-1 inhibitors part 1: identification of novel hydroxy ethylamines (HEAs)” (Bioorg Med Chem Lett, 2008).

How the values were obtained:
Cathepsin D = Cathepsin D (Homo sapiens, UniProt P07339); assay: Inhibition of cathepsin D
Beta-secretase 1 [1] = target: T1, Beta-secretase 1 (Homo sapiens, UniProt P56817); assay: Inhibition of BACE1 expressed in SHSY5Y cells assessed as reduction of amyloid beta 40 production; type: cell-based, SH-SY5Y
Beta-secretase 2 = target: T2, Beta-secretase 2 (Homo sapiens, UniProt Q9Y5Z0); assay: Inhibition of BACE2
T2 sequence (Q9Y5Z0 whole entry): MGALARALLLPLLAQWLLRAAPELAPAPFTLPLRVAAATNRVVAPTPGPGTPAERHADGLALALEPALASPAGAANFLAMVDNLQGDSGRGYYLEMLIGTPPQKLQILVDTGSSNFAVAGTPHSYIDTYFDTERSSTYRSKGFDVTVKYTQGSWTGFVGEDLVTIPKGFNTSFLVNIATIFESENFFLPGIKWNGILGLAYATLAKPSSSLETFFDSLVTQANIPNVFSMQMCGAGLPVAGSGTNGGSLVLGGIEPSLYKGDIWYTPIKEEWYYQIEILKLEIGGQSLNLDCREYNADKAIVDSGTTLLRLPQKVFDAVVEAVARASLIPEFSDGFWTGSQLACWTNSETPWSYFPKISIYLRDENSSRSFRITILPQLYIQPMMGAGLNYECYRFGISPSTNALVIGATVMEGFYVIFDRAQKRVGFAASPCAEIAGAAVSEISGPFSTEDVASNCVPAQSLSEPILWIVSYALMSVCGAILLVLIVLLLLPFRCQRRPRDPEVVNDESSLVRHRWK

Beta-secretase 1 [2] = target: T1, Beta-secretase 1; assay: Inhibition of BACE1
Beta-secretase 1 [3] = target: T1, Beta-secretase 1; type: cell-based, SH-SY5Y

Sequence of Cathepsin D (P07339 65-162 limits assumed): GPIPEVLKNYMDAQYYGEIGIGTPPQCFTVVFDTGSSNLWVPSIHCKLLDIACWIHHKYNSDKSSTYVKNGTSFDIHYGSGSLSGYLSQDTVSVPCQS
Sequence of Cathepsin D (P07339 169-412 limits assumed): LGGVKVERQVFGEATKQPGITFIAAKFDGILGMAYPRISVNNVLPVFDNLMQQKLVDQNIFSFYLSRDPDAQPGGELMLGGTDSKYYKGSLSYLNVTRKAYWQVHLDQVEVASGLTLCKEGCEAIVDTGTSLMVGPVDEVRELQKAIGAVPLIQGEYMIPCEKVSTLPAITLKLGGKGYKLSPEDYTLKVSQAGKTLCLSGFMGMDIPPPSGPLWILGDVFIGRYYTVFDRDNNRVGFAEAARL
T1 sequence (P56817 whole entry): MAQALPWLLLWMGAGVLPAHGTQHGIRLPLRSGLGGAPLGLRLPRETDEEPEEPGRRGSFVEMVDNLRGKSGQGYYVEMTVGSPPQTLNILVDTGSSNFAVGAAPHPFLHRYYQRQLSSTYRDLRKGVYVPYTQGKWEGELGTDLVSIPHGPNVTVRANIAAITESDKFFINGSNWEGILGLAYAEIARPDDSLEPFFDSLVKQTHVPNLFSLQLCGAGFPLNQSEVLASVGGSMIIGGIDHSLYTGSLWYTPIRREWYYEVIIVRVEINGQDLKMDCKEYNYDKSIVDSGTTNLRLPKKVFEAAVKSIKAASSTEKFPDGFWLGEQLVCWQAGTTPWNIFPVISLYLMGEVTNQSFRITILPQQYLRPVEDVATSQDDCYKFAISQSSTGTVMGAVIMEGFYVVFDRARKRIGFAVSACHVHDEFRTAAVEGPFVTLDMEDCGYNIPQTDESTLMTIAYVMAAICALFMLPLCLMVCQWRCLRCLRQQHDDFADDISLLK

Structure (SMILES)	IC50 (Cathepsin D) [nM]	IC50 (Beta-secretase 1 [1]) [nM]	IC50 (Beta-secretase 2) [nM]	IC50 (Beta-secretase 1 [2]) [nM]	IC50 (Beta-secretase 1 [3]) [nM]
CC(C)Oc1cc(C(=O)N[C@@H](Cc2ccccc2)[C@H](O)CN[C@@H](C)C(=O)NC2CCCCC2)cc(N2CCCC2=O)c1	12300	1130	4790	120	1180
CCCCCS(=O)(=O)c1cccc(C(=O)N[C@@H](Cc2ccccc2)[C@H](O)CN[C@@H](C)C(=O)NC2CCCCC2)c1	600	–	3600	–	–
CC(=O)Nc1ccc(C(=O)N[C@@H](Cc2ccccc2)[C@H](O)CN[C@@H](C)C(=O)NC2CCCCC2)cc1	> 100000	–	> 100000	62000	–
CCCOc1cc(C(=O)N[C@@H](Cc2ccccc2)[C@H](O)CN[C@@H](C)C(=O)NC2CCCCC2)cc(N2CCCC2=O)c1	47100	1690	8240	–	1380
CCCc1cc(C(=O)N[C@@H](Cc2ccccc2)[C@H](O)CN[C@@H](C)C(=O)NC2CCCCC2)cc(N2CCCC2=O)c1	4570	990	1580	72	690
C[C@H](NC[C@@H](O)[C@H](Cc1ccccc1)NC(=O)c1cc(N2CCCC2)cc(N2CCCC2=O)c1)C(=O)NC1CCCCC1	9280	–	8790	860	–
C[C@@H](C(=O)NC1CCCCC1)N(C)C[C@@H](O)[C@H](Cc1ccccc1)NC(=O)c1cccc(S(C)(=O)=O)c1	–	–	–	> 500000	–
CC(C)CNc1cc(C(=O)N[C@@H](Cc2ccccc2)[C@H](O)CN[C@@H](C)C(=O)NC2CCCCC2)cc(N2CCCC2=O)c1	3090	–	650	180	–
C[C@H](NC[C@H](O)[C@H](Cc1ccccc1)NC(=O)c1cccc(S(C)(=O)=O)c1)C(=O)NC1CCCCC1	–	–	–	> 500000	–
C[C@H](NC[C@@H](O)[C@H](Cc1ccccc1)NC(=O)c1cccc(N2CCCS2(=O)=O)c1)C(=O)NC1CCCCC1	10000	–	> 21000	1900	–
CC(C)C[C@H](NC(=O)c1cccc(S(C)(=O)=O)c1)[C@H](O)CN[C@@H](C)C(=O)NC1CCCCC1	–	–	–	> 500000	–
CC(C)Nc1cc(C(=O)N[C@@H](Cc2ccccc2)[C@H](O)CN[C@@H](C)C(=O)NC2CCCCC2)cc(N2CCCC2=O)c1	5410	330	830	39	280
CCOc1cc(C(=O)N[C@@H](Cc2ccccc2)[C@H](O)CN[C@@H](C)C(=O)NC2CCCCC2)cc(N2CCCC2)c1	6170	–	12900	1450	–
CCCCCOc1cc(C(=O)N[C@@H](Cc2ccccc2)[C@H](O)CN[C@@H](C)C(=O)NC2CCCCC2)cc(N2CCCC2=O)c1	430	–	400	32	–
COc1cc(C(=O)N[C@@H](Cc2ccccc2)[C@H](O)CN[C@@H](C)C(=O)NC2CCCCC2)cc(N2CCCC2=O)c1	30000	–	28600	745	–
CCOc1cc(C(=O)N[C@@H](Cc2ccccc2)[C@H](O)CN[C@@H](C)C(=O)NC2CCCCC2)cc(N2CCCC2=O)c1	7940	970	5130	59	1420
